For assay [1], the system named is phosphorylated ERK in Human A375 melanoma cancer cells. As to the kind of experiment: AlphaScreen assay for phosphorylated ERK in A375 cells. The conditions noted are these: A-375, 1 h, compound treatment 60 minutes at 37 degree, phospho-ERK, read-out: IC50 (nM) Cell based. The protocol:
The SureFire Phospho-ERK1/2 Assay kit and the AlphaScreen General IgG (Protein A) Detection kit were both purchased from PerkinElmer.
Generation of Cell Based IC50 Data • Effects of compounds in the cell were determined by the AlphaScreen assay for phosphorylated ERK. Human A375 melanoma cancer cells were plated in a 96 wells plate at 80,000 cells per well and grown in a 37 degree humidified CO2 incubator. The following day, cells were treated with a range of compound concentrations for 60 minutes at 37 degree. The cells were then lysed and 4 ul of each lysate were transferred into the 384 well white reaction plate. A cocktail of AlphaScreen beads and buffer was freshly prepared and this mixture was dispensed into each well in a room with low light. A top seal was applied and the plate was incubated at 25 degree avoiding light for two hours. The top seal was removed when the plate was counted by the EnVision multi labeled plate reader (PerkinElmer) with an optimized AlphaScreen program. […] Biological Data for Select Compounds
For orientation: Alpha assays give light when donor and acceptor beads are brought close together.

Assay [2] addresses MEK1 kinase (Homo sapiens (Human), UniProt Q02750). The assay can be described thus: MEK1 kinase enzymatic activity assay (Kinase Glo plus luminescence). Conditions: 60 minutes at 22 degree. It counts as biochemical. On the procedure:
The Kinase Glo plus assay kit was purchased from Promega. The substrate, APT, DTT, and dimethylsulfoxide were purchased from Sigma-Aldrich.
The MAP2K1 (MEK1) kinase, Europium labeled Antibody, Tracer 236 and binding buffer A were purchased from Invitrogen.
Determination of Enzymatic Activity:
Compounds were diluted from DMSO stocks into 1× buffer (20 mM MOPS, PH 7.4, 5 mM MgCl2, 0.5 mM MnCl2, 100 uM Sodium Orthovanadate, 0.01% Triton X-100, 1 mM DTT). A typical reaction assay contained 0.01 nanomoles MEK1 kinase, 0.01 nanomoles ATP, 10 nanograms substrate. The screening assay essentially comprised four additions. 2 ul of diluted compounds were dispensed to 384 well white assay plates. 6 ul of kinase-substrate cocktail was then added to each well. 2 ul 5×ATP was subsequently added to each well to start the reaction. A top seal was applied and the plate was incubated at 22 degree avoiding light for 60 minutes. Finally, 10 ul of the Kinase Glo plus reagent was added to each well to stop the reaction. Incubated at room temperature and avoid light for ten minutes. The top seal was removed and the plate was counted by the EnVision 2104 multi labeled plate reader (PerkinElmer) with a standard luminescent program.
(In general: In Kinase-Glo more light means more ATP remaining.)

Chain of MEK1 kinase (Q02750 whole entry): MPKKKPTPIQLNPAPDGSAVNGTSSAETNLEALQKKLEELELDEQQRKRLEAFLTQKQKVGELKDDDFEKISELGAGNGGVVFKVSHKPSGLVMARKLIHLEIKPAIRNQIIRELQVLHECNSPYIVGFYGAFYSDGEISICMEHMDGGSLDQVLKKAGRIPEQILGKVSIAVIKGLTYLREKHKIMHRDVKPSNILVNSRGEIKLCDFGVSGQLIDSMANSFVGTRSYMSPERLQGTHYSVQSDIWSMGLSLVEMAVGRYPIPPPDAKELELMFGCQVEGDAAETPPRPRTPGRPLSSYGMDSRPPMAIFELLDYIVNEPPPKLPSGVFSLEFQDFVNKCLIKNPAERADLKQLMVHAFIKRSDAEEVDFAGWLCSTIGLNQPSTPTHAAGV

In general, IC50 refers to the concentration at which inhibition is half-maximal. `Cc1coc2c(C(=O)NOCCO)c(Nc3ccc(I)cc3F)n(C)c(=O)c12`: the IC50 in assay [1] was < 100 nM; in assay [2], < 500 nM.

Take `Cn1c(Nc2ccc(Br)cc2Cl)c(C(=O)NOCCO)c2occc2c1=O`: the results for the IC50 in assay [1] and in assay [2] were < 100 nM and < 1000 nM, respectively.

`C[C@H](O)CONC(=O)c1c(Nc2ccc(I)cc2F)n(C)c(=O)c2ccoc12`: the IC50 in assay [1] and in assay [2] was < 100 nM in each case.

On to `Cc1nc2c(C(=O)NOCCO)c(Nc3ccc(I)cc3F)n(C)c(=O)c2s1`, for which the figures for the 50% inhibitory concentration (IC50) in assay [1] and in assay [2] were < 100 nM and < 500 nM, respectively.

As to `Cn1c(Nc2ccc(I)cc2F)c(C(=O)NOC(C)(C)CO)c2occc2c1=O`, the IC50 in assay [1] and in assay [2] was < 100 nM throughout.

Turning to `Cc1noc2c(C(=O)NOCCO)c(Nc3ccc(I)cc3F)n(C)c(=O)c12`, the IC50 is < 100 nM in assay [1] and < 10000 nM in assay [2].

As for `Cn1c(Nc2ccc(I)cc2F)c(C(=O)NCC(O)CO)c2occc2c1=O` (stereo not shown), the IC50 was < 100 nM in assay [1] and < 1000 nM in assay [2].

For `Cn1c(Nc2ccc(I)cc2Cl)c(C(=O)NOCCO)c2occc2c1=O`, the IC50 in assay [1] and in assay [2] was < 100 nM in each case.

On to `CSc1ccc(Nc2c(C(=O)NOCCO)c3occc3c(=O)n2C)c(F)c1`, for which the IC50 was < 100 nM in assay [1] and < 500 nM in assay [2].

For `Cn1c(Nc2ccc(I)cc2F)c(C(=O)NOC[C@H](O)CO)c2occc2c1=O`, the IC50 in assay [1] and in assay [2] was < 100 nM throughout.

On to `Cn1c(Nc2ccc(I)cc2F)c(C(=O)NOCCO)c2scnc2c1=O`, for which the IC50 in assay [1] and in assay [2] was < 10000 nM throughout.

`Cn1c(Nc2ccc(I)cc2F)c(C(=O)NCCCO)c2occc2c1=O`: the IC50 was < 100 nM in assay [1] and < 10000 nM in assay [2].

Regarding `Cn1c(Nc2ccc(I)cc2F)c(C(=O)NOCC2CC2)c2occc2c1=O`, the IC50 in assay [1] and in assay [2] was < 100 nM in each case.

In the case of `Cc1nc2c(=O)n(C)c(Nc3ccc(I)cc3F)c(C(=O)NOCCO)c2o1`, the IC50 in assay [1] was < 100 nM; in assay [2] it was < 1000 nM.

Consider `CSc1ccc(Nc2c(C(=O)NOCCO)c3occc3c(=O)n2C)c(Cl)c1`, for which the figures for the IC50 in assay [1] and in assay [2] were < 100 nM and < 1000 nM, respectively.

Consider `Cn1c(Nc2ccc(I)cc2F)c(C(=O)NOCCO)c2oc(CN3CCOCC3)cc2c1=O`, for which the IC50 in assay [1] was < 100 nM; in assay [2], < 500 nM.

Regarding `Cc1coc2c(C(=O)NOCCO)c(Nc3ccc(I)cc3Cl)n(C)c(=O)c12`, the half-maximal inhibitory concentration (IC50) in assay [1] was < 100 nM; in assay [2] it was < 500 nM.

With `Cn1c(Nc2ccc(I)cc2F)c(C(=O)NOCCO)c2sccc2c1=O`, the IC50 in assay [1] was < 100 nM; in assay [2], < 500 nM.

On to `CSc1nc2c(C(=O)NOCCO)c(Nc3ccc(I)cc3F)n(C)c(=O)c2s1`, for which the IC50 in assay [1] is < 100 nM; in assay [2] it was < 500 nM.

Take `Cn1c(Nc2ccc(I)cc2F)c(C(=O)NOCCO)c2occc2c1=O`: the IC50 in assay [1] and in assay [2] was < 100 nM in each case.

On to `Cn1c(Nc2ccc(I)cc2F)c(C(=O)NOCCO)c2nc(N)sc2c1=O`, for which the IC50 in assay [1] is < 100 nM; in assay [2], < 500 nM.

As for `CONC(=O)c1c(Nc2ccc(I)cc2F)n(C)c(=O)c2ccoc12`, the IC50 in assay [1] was < 100 nM; in assay [2] it was < 500 nM.

On to `COCCONC(=O)c1c(Nc2ccc(I)cc2F)n(C)c(=O)c2ccoc12`, for which the IC50 was < 100 nM in assay [1] and < 500 nM in assay [2].

As for `C[C@@H](CO)ONC(=O)c1c(Nc2ccc(I)cc2F)n(C)c(=O)c2ccoc12`, the half-maximal inhibitory concentration (IC50) in assay [1] and in assay [2] was < 100 nM each time.

With `CCONC(=O)c1c(Nc2ccc(I)cc2F)n(C)c(=O)c2ccoc12`, the IC50 in assay [1] was < 100 nM; in assay [2] it was < 500 nM.

Take `Cn1c(Nc2ccc(I)cc2F)c(C(=O)NC(=O)CO)c2occc2c1=O`: the 50% inhibitory concentration (IC50) in assay [1] was < 500 nM; in assay [2], < 10000 nM.

Consider `Cn1c(Nc2ccc(I)cc2F)c(C(N)=O)c2occc2c1=O`, for which the IC50 in assay [1] was < 100 nM; in assay [2], < 1000 nM.

In the case of `Cn1c(Nc2ccc(Cl)cc2Cl)c(C(=O)NOCCO)c2occc2c1=O`, the figures for the IC50 in assay [1] and in assay [2] were < 1000 nM and < 10000 nM, respectively.

For the compound `Cn1c(Nc2ccc(Br)cc2F)c(C(=O)NOCCO)c2occc2c1=O`, the IC50 in assay [1] is < 100 nM; in assay [2] it was < 10000 nM.

In the case of `Cn1c(Nc2ccc(I)cc2Cl)c(C(=O)NCCCO)c2occc2c1=O`, the IC50 in assay [1] was < 100 nM; in assay [2], < 10000 nM.

As for `CN(C)Cc1cc2c(=O)n(C)c(Nc3ccc(I)cc3F)c(C(=O)NOCCO)c2o1`, the IC50 was < 100 nM in assay [1] and < 500 nM in assay [2].

As to `Cc1cc2c(=O)n(C)c(Nc3ccc(I)cc3F)c(C(=O)NOCCO)c2o1`, the results for the IC50 in assay [1] and in assay [2] were < 100 nM and < 500 nM, respectively.

For `CC[C@H](O)CONC(=O)c1c(Nc2ccc(I)cc2F)n(C)c(=O)c2ccoc12`, the IC50 in assay [1] and in assay [2] was < 100 nM in each case.

With `Cn1c(Nc2ccc(I)cc2F)c(C(=O)N2CC(O)(C3CCCCN3)C2)c2occc2c1=O` (stereo not shown), the IC50 in assay [1] is < 100 nM; in assay [2], < 1000 nM.

In the case of `CNc1nc2c(C(=O)NOCCO)c(Nc3ccc(I)cc3F)n(C)c(=O)c2s1`, the IC50 in assay [1] was < 100 nM; in assay [2] it was < 500 nM.

For `Cn1c(Nc2ccc(I)cc2F)c(C(=O)NOCCO)c2ncsc2c1=O`, the 50% inhibitory concentration (IC50) in assay [1] is < 100 nM; in assay [2], < 1000 nM.

In the case of `CSc1nc2c(C(=O)NOCCO)c(Nc3ccc(I)cc3Cl)n(C)c(=O)c2s1`, the IC50 in assay [1] and in assay [2] was < 100 nM in each case.

Consider `Cc1cc2c(=O)n(C)c(Nc3ccc(I)cc3F)c(C(=O)NOC[C@H](O)CO)c2o1`, for which the figures for the IC50 in assay [1] and in assay [2] were < 100 nM and < 500 nM, respectively.

The record behind these values is patent US9540396B2, “6-arylamino pyridone carboxamide as MEK inhibitors” (Centaurus Biopharma Co., Ltd., priority 2010, dated 2017).
